Laboratory results published in BindingDB's records for doi:10.7270/Q2SX6BMJ (Burnham Center for Chemical Genomics, 2008).

The compounds below were run against T1, Alkaline phosphatase, tissue-nonspecific isozyme (Homo sapiens, UniProt P05186) (assay: inhibition of tissue-nonspecific alkaline phosphatase – biochemical, luminescent (AID 518)).
T1 sequence (P05186 whole entry): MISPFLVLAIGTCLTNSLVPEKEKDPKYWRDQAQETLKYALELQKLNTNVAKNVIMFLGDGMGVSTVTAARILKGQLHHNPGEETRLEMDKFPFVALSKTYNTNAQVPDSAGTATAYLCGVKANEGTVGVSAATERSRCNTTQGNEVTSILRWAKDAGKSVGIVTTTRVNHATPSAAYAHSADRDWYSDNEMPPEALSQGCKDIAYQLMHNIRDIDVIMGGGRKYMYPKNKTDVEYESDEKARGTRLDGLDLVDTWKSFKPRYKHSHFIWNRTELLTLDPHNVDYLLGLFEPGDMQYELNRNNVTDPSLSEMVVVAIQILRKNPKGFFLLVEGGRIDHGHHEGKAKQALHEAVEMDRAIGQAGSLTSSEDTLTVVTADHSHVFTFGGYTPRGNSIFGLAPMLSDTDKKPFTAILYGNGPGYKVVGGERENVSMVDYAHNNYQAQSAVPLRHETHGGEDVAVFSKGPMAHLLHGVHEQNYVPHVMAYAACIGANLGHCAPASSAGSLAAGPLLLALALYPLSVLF

IC50 [µM] | Structure (SMILES)
1.35 | COc1ccc(-c2[nH]nc3oc(=O)cc(C)c23)cc1
1.14 | COC(=O)c1cc(-c2ccc(Br)cc2)n[nH]1
3.72 | c1ccc(-c2[nH]nc3ccccc23)cc1
1.73 | CC(=N)C(C#N)C(=O)CSc1nnc(-c2ccccc2Br)[nH]1 (configuration not stated)
> 100 | O=C(Nc1nnc(C2CCCCC2)[nH]1)C1CCCCC1
1.83 | CC1(C)CC(=O)c2c(n[nH]c2Cc2ccccc2)C1
2.67 | O=C(O)c1cc(-c2ccc(Cl)cc2)n[nH]1
> 100 | Brc1ccc(-c2nnc3sc(CNCc4ccc5c(c4)OCO5)cn23)cc1 [1-(1,3-benzodioxol-5-yl)-N-[[3-(4-bromophenyl)-6-thiazolo[2,3-c][1,2,4]triazolyl]methyl]methanamine]
> 100 | O=C(Cc1ccc(-n2cccc2)cc1)N1CCN(c2ccccc2F)CC1 [1-(2-fluorophenyl)-4-{[4-(1H-pyrrol-1-yl)phenyl]acetyl}piperazine]
> 100 | Cc1ccc2c(c1)-c1c(cnn1CC(=O)N1CCCN(Cc3ccccc3F)C1)CO2 [1-[3-(2-fluorobenzyl)hexahydropyrimidin-1-yl]-2-(8-methyl-4H-chromeno[4,3-c]pyrazol-1-yl)ethanone]
> 100 | O=c1c(=Cc2ccco2)sc2nc(-c3ccccc3Br)nn12 [2-(2-bromophenyl)-5-(2-furanylmethylidene)-6-thiazolo[3,2-b][1,2,4]triazolone]
> 100 | Cc1ccc(-n2c(Cc3cccn3C)nnc2SCC(=O)Nc2nnc(C)s2)cc1 [2-({4-(4-methylphenyl)-5-[(1-methyl-1H-pyrrol-2-yl)methyl]-4H-1,2,4-triazol-3-yl}thio)-N-(5-methyl-1,3,4-thiadiazol-2-yl)acetamide]
> 100 | CCc1ccc(OCc2nc(-c3ccccn3)no2)c(Br)c1 [2-{5-[(2-bromo-4-ethylphenoxy)methyl]-1,2,4-oxadiazol-3-yl}pyridine]
> 100 | CCOC(=O)N1CCN(C(=O)c2ccc(CS(=O)(=O)c3ccccc3OC)o2)CC1 [4-[5-[(2-methoxyphenyl)sulfonylmethyl]-2-furoyl]piperazine-1-carboxylic acid ethyl ester]
11.7 | Cc1ccsc1C=c1sc2ncnn2c1=O [5-[(3-methyl-2-thienyl)methylene][1,3]thiazolo[3,2-b][1,2,4]triazol-6(5H)-one]
1.66 | COc1cc(CSc2nnc[nH]2)c(OC)cc1CSc1nnc[nH]1 [5-[[2,5-dimethoxy-4-[(1H-1,2,4-triazol-5-ylthio)methyl]phenyl]methylthio]-1H-1,2,4-triazole]
5.25 | COCc1n[nH]c2c1C(c1cc(OC)c(O)c(OC)c1)C(C#N)C(=N)O2 (configuration not stated) [6-azanyl-4-(3,5-dimethoxy-4-oxidanyl-phenyl)-3-(methoxymethyl)-2,4-dihydropyrano[2,3-c]pyrazole-5-carbonitrile]
2.62 | COc1ccc2c(c1)CCc1c-2n[nH]c1C(=O)O [7-methoxy-4,5-dihydro-2H-benzo[g]indazole-3-carboxylic acid]
> 100 | O=C(C1CCN(S(=O)(=O)N2CCC3(CC2)OCCO3)CC1)N1CCN(Cc2ccccc2)CC1 [(4-benzylpiperazin-1-yl)-[1-(1,4-dioxa-8-azaspiro[4.5]decan-8-ylsulfonyl)piperidin-4-yl]methanone]

IC50 [µM] | Structure (SMILES)
> 100 | O=C(Cn1c(-c2ccccc2)noc1=O)Nc1ccc(N2CCCCCC2)cc1 [MLS000027331]
15.8 | Cn1ncc2c1ncn1nc(CCc3ccccc3)nc21 [MLS000040759]
> 100 | COc1ccc(CNC(=O)C(C)NC(=O)c2cc3ccccc3o2)cc1 (configuration not stated) [MLS000047147]
> 100 | c1ccc(-n2ncc3c2ncn2cnnc32)cc1 [MLS000048783]
7.92 | Cc1ccc(-n2ncc3c2ncn2c(C)nnc32)cc1C [MLS000082333]
> 100 | CCCc1nc2c3cnn(-c4cccc(Cl)c4)c3ncn2n1 [MLS000083263]
> 100 | OCc1nnn(-c2cccc(C(F)(F)F)c2)c1CO [MLS000090420]
> 100 | CCN(CC)S(=O)(=O)c1ccc2c(c1)c(=O)c(C(=O)N1CCOCC1)cn2C [MLS000092367]
0.33 | Oc1c2c(c(O)n1-c1nnc(Cc3ccccc3)[nH]1)CC=CC2 [MLS000100008]
> 100 | Cn1c(NC(=O)CC(C)(C)C)cc(=O)n(C)c1=O [MLS000103608]
0.82 | CCCSc1nnc(NC(C)=O)[nH]1 [MLS000114796]
> 100 | Cc1cc(NC(=O)c2noc3c2CCc2ccccc2-3)n(-c2ccccc2)n1 [MLS000116423]
> 100 | CCCCNC(=O)c1ccc2nc(-c3ccco3)c(-c3ccco3)nc2c1 [MLS000119995]
1.23 | Cc1cc(=O)oc2n[nH]c(-c3ccccc3)c12 [MLS-0013971.0001]
9.5 | CC1(C)Cc2c(sc3nc4n(c(=N)c23)CCCCC4)CO1 [SMR000039131]
1.17 | COC(=O)c1cc(-c2c[nH]c3ccccc23)[nH]n1 [SMR000079439]
5.39 | CCOC(=O)c1sc(NC(=O)CSc2nnc(-c3ccccc3)[nH]2)c(C#N)c1C [ethyl 4-cyano-3-methyl-5-[[2-[(5-phenyl-1H-1,2,4-triazol-3-yl)sulfanyl]acetyl]amino]thiophene-2-carboxylate]
1.24 | COC(=O)c1cc(-c2ccccc2)n[nH]1 [methyl 3-phenyl-1H-pyrazole-5-carboxylate]
